Reference: patent publication US10428044B2, “3-amino-1,5,6,7-tetrahydro-4H-indol-4-ones” (Bayer Pharma Aktiengesellschaft, priority 2014, dated 2019)
pIC50: −log10 of the molar value.

Target: (recombinant) catalytic domain of human Bub1 (amino acids 704-1085) (Homo sapiens (Human), UniProt O43683)
Assay: Bub1 kinase assay (TR-FRET)
Assay type: biochemical
Conditions: ATP 10 μM final, peptide substrate 1 μM final, 60 min at 22° C., read-out: Biological Assay: Bub1 kinase assay median IC50
How it was run: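 Readout was TR-FRET between a Eu-labeled antibody complex recognizing phosphoserine and streptavidin-XL665 on the biotinylated peptide, after EDTA stop and 1 h at 22° C. The kinase reaction ran for 60 min at 22° C. Values are means or medians of repeat tests, from 4-parameter fits normalized to enzyme-free and inhibitor-free controls.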

Sequence of (recombinant) catalytic domain of human Bub1 (amino acids 704-1085) (O43683 704-1085): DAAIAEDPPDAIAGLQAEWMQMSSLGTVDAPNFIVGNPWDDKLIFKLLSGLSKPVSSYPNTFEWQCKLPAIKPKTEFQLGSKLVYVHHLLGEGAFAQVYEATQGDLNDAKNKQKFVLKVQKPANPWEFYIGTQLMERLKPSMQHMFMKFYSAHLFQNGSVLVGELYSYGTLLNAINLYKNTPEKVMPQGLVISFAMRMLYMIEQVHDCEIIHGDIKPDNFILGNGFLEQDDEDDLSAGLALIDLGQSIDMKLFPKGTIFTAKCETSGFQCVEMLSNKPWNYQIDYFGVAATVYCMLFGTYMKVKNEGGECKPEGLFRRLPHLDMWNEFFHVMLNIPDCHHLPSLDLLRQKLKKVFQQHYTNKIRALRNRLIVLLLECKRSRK

Structure (SMILES)	pIC50
CC(C)(CF)C(=O)Nc1cc(-c2[nH]c3c(c2Nc2ccccc2)C(=O)CCC3)ccn1 [Example 263, 3-fluoro-2,2-dimethyl-N-{4-[4-oxo-3-(phenylamino)-4,5,6,7-tetrahydro-1H-indol-2-yl]pyridin-2-yl}propanamide]	6.85
O=C(Nc1cc(-c2[nH]c3c(c2Nc2ccccc2)C(=O)CCC3)ccn1)c1ccccc1F [Example 264, 2-fluoro-N-{4-[4-oxo-3-(phenylamino)-4,5,6,7-tetrahydro-1H-indol-2-yl]pyridin-2-yl}benzamide]	7.86
O=C(Nc1cc(-c2[nH]c3c(c2Nc2ccccc2)C(=O)CCC3)ccn1)c1cccc(F)c1 [Example 265, 3-fluoro-N-{4-[4-oxo-3-(phenylamino)-4,5,6,7-tetrahydro-1H-indol-2-yl]pyridin-2-yl}benzamide]	7.72
O=C(Nc1cc(-c2[nH]c3c(c2Nc2ccccc2)C(=O)CCC3)ccn1)c1ccc(F)cc1 [Example 266, 4-fluoro-N-{4-[4-oxo-3-(phenylamino)-4,5,6,7-tetrahydro-1H-indol-2-yl]pyridin-2-yl}benzamide]	7.86
CC1(C)CC(=O)c2c([nH]c(-c3ccnc(NC(=O)c4ccc(F)cc4)c3)c2Nc2ccccc2)C1 [Example 267, N-{4-[6,6-dimethyl-4-oxo-3-(phenylamino)-4,5,6,7-tetrahydro-1H-indol-2-yl]pyridin-2-yl}-4-fluorobenzamide]	8.02
O=C(Nc1cc(-c2[nH]c3c(c2Nc2ccccc2)C(=O)CCC3)ccn1)c1ccncc1 [Example 268, N-{4-[4-oxo-3-(phenylamino)-4,5,6,7-tetrahydro-1H-indol-2-yl]pyridin-2-yl}pyridine-4-carboxamide]	7.64
O=C(Nc1cc(-c2[nH]c3c(c2Nc2ccccc2)C(=O)CCC3)ccn1)c1ccccn1 [Example 269, N-{4-[4-oxo-3-(phenylamino)-4,5,6,7-tetrahydro-1H-indol-2-yl]pyridin-2-yl}pyridine-2-carboxamide]	7.53
O=C(Nc1cc(-c2[nH]c3c(c2Nc2ccccc2)C(=O)CCC3)ccn1)c1nccs1 [Example 270, N-{4-[4-oxo-3-(phenylamino)-4,5,6,7-tetrahydro-1H-indol-2-yl]pyridin-2-yl}-1,3-thiazole-2-carboxamide]	7.53
O=C(Nc1cc(-c2[nH]c3c(c2Nc2ccccc2)C(=O)CCC3)ccn1)c1cscn1 [Example 271, N-{4-[4-oxo-3-(phenylamino)-4,5,6,7-tetrahydro-1H-indol-2-yl]pyridin-2-yl}-1,3-thiazole-4-carboxamide]	8.12
CC1(C)CC(=O)c2c([nH]c(-c3ccnc(NC(=O)c4cscn4)c3)c2Nc2ccccc2)C1 [Example 272, N-{4-[6,6-dimethyl-4-oxo-3-(phenylamino)-4,5,6,7-tetrahydro-1H-indol-2-yl]pyridin-2-yl}-1,3-thiazole-4-carboxamide]	8.18
O=C(Nc1cc(-c2[nH]c3c(c2Nc2ccccc2)C(=O)CCC3)ccn1)c1cncs1 [Example 273, N-{4-[4-oxo-3-(phenylamino)-4,5,6,7-tetrahydro-1H-indol-2-yl]pyridin-2-yl}-1,3-thiazole-5-carboxamide]	8.12
O=C(Nc1cc(-c2[nH]c3c(c2Nc2ccccc2)C(=O)CCC3)ccn1)c1ncc[nH]1 [Example 274, N-{4-[4-oxo-3-(phenylamino)-4,5,6,7-tetrahydro-1H-indol-2-yl]pyridin-2-yl}-1H-imidazole-2-carboxamide]	7.32
O=C(Nc1cc(-c2[nH]c3c(c2Nc2ccccc2)C(=O)CCC3)ccn1)c1ccn[nH]1 [Example 275, N-{4-[4-oxo-3-(phenylamino)-4,5,6,7-tetrahydro-1H-indol-2-yl]pyridin-2-yl}-1H-pyrazole-5-carboxamide]	7.90
O=C(Nc1cc(-c2[nH]c3c(c2Nc2ccccc2)C(=O)CCC3)ccn1)c1ccsn1 [Example 276, N-{4-[4-oxo-3-(phenylamino)-4,5,6,7-tetrahydro-1H-indol-2-yl]pyridin-2-yl}-1,2-thiazole-3-carboxamide]	7.74
O=C(Nc1cc(-c2[nH]c3c(c2Nc2ccccc2)C(=O)CCC3)ccn1)c1cocn1 [Example 278, N-{4-[4-oxo-3-(phenylamino)-4,5,6,7-tetrahydro-1H-indol-2-yl]pyridin-2-yl}-1,3-oxazole-4-carboxamide]	7.90
O=C(Nc1cc(-c2[nH]c3c(c2Nc2ccccc2)C(=O)CCC3)ccn1)c1cccnc1 [Example 279, N-{4-[4-oxo-3-(phenylamino)-4,5,6,7-tetrahydro-1H-indol-2-yl]pyridin-2-yl}pyridine-3-carboxamide]	7.90
O=C(Nc1cc(-c2[nH]c3c(c2Nc2ccccc2)C(=O)CCC3)ccn1)c1ccns1 [Example 280, N-{4-[4-oxo-3-(phenylamino)-4,5,6,7-tetrahydro-1H-indol-2-yl]pyridin-2-yl}-1,2-thiazole-5-carboxamide]	7.99

Structure (SMILES)	pIC50
O=C(Nc1cc(-c2[nH]c3c(c2Nc2ccccc2)C(=O)CCC3)ccn1)c1cnn[nH]1 [Example 281, N-{4-[4-oxo-3-(phenylamino)-4,5,6,7-tetrahydro-1H-indol-2-yl]pyridin-2-yl}-1H-1,2,3-triazole-5-carboxamide]	7.95
O=C(Nc1cc(-c2[nH]c3c(c2Nc2ccccc2)C(=O)CCC3)ccn1)c1cnco1 [Example 282, N-{4-[4-oxo-3-(phenylamino)-4,5,6,7-tetrahydro-1H-indol-2-yl]pyridin-2-yl}-1,3-oxazole-5-carboxamide]	8.01
O=C(Nc1cc(-c2[nH]c3c(c2Nc2ccccc2)C(=O)CCC3)ccn1)c1nnn[nH]1 [Example 283, N-{4-[4-oxo-3-(phenylamino)-4,5,6,7-tetrahydro-1H-indol-2-yl]pyridin-2-yl}-1H-tetrazole-5-carboxamide]	7.72
O=C(Cc1ccc[nH]1)Nc1cc(-c2[nH]c3c(c2Nc2ccccc2)C(=O)CCC3)ccn1 [Example 284, N-{4-[4-oxo-3-(phenylamino)-4,5,6,7-tetrahydro-1H-indol-2-yl]pyridin-2-yl}-2-(1H-pyrrol-2-yl)acetamide]	7.86
O=C(Cc1nccs1)Nc1cc(-c2[nH]c3c(c2Nc2ccccc2)C(=O)CCC3)ccn1 [Example 285, N-{4-[4-oxo-3-(phenylamino)-4,5,6,7-tetrahydro-1H-indol-2-yl]pyridin-2-yl}-2-(1,3-thiazol-2-yl)acetamide]	7.51
O=C(Cc1cc[nH]c1)Nc1cc(-c2[nH]c3c(c2Nc2ccccc2)C(=O)CCC3)ccn1 [Example 286, N-{4-[4-oxo-3-(phenylamino)-4,5,6,7-tetrahydro-1H-indol-2-yl]pyridin-2-yl}-2-(1H-pyrrol-3-yl)acetamide]	7.67
O=C(Cc1cscn1)Nc1cc(-c2[nH]c3c(c2Nc2ccccc2)C(=O)CCC3)ccn1 [Example 287, N-{4-[4-oxo-3-(phenylamino)-4,5,6,7-tetrahydro-1H-indol-2-yl]pyridin-2-yl}-2-(1,3-thiazol-4-yl)acetamide]	7.32
O=C(Cc1ccco1)Nc1cc(-c2[nH]c3c(c2Nc2ccccc2)C(=O)CCC3)ccn1 [Example 288, 2-(furan-2-yl)-N-{4-[4-oxo-3-(phenylamino)-4,5,6,7-tetrahydro-1H-indol-2-yl]pyridin-2-yl}acetamide]	7.78
Cc1cc(CC(=O)Nc2cc(-c3[nH]c4c(c3Nc3ccccc3)C(=O)CCC4)ccn2)on1 [Example 289, 2-(3-methyl-1,2-oxazol-5-yl)-N-{4-[4-oxo-3-(phenylamino)-4,5,6,7-tetrahydro-1H-indol-2-yl]pyridin-2-yl}acetamide]	7.80
O=C(Cc1cccs1)Nc1cc(-c2[nH]c3c(c2Nc2ccccc2)C(=O)CCC3)ccn1 [Example 290, N-{4-[4-oxo-3-(phenylamino)-4,5,6,7-tetrahydro-1H-indol-2-yl]pyridin-2-yl}-2-(thiophen-2-yl)acetamide]	7.86
O=C(Cc1ccsc1)Nc1cc(-c2[nH]c3c(c2Nc2ccccc2)C(=O)CCC3)ccn1 [Example 291, N-{4-[4-oxo-3-(phenylamino)-4,5,6,7-tetrahydro-1H-indol-2-yl]pyridin-2-yl}-2-(thiophen-3-yl)acetamide]	7.54
Cn1nccc1CC(=O)Nc1cc(-c2[nH]c3c(c2Nc2ccccc2)C(=O)CCC3)ccn1 [Example 292, 2-(1-methyl-1H-pyrazol-5-yl)-N-{4-[4-oxo-3-(phenylamino)-4,5,6,7-tetrahydro-1H-indol-2-yl]pyridin-2-yl}acetamide]	6.47
CC(=O)Nc1cc(-c2[nH]c3c(c2Nc2ccccc2)C(=O)CC2(CC2)C3)ccn1 [Example 293, N-{4-[4′-oxo-3′-(phenylamino)-1′,4′,5′,7′-tetrahydrospiro[cyclopropane-1,6′-indol]-2′-yl]pyridin-2-yl}acetamide]	7.95
O=C1CC2(CC2)Cc2[nH]c(-c3ccnc(NC(=O)C4CC4)c3)c(Nc3ccccc3)c21 [Example 294, N-{4-[4′-oxo-3′-(phenylamino)-1′,4′,5′,7′-tetrahydrospiro[cyclopropane-1,6′-indol]-2′-yl]pyridin-2-yl}cyclopropanecarboxamide]	8.04
CC(C)(C)OC(=O)N1CC(C(=O)Nc2cc(-c3[nH]c4c(c3Nc3ccccc3)C(=O)CCC4)ccn2)C1 [Example 295, tert-butyl 3-({4-[4-oxo-3-(phenylamino)-4,5,6,7-tetrahydro-1H-indol-2-yl]pyridin-2-yl}carbamoyl)azetidine-1-carboxylate]	7.42
O=C1CCCc2[nH]c(-c3ccnc(NC(=O)C4CNC4)c3)c(Nc3ccccc3)c21 [Example 296, N-{4-[4-oxo-3-(phenylamino)-4,5,6,7-tetrahydro-1H-indol-2-yl]pyridin-2-yl}azetidine-3-carboxamide]	5.46
CN(CC(=O)Nc1cc(-c2[nH]c3c(c2Nc2ccccc2)C(=O)CCC3)ccn1)C(=O)OC(C)(C)C [Example 297, tert-butyl methyl[2-oxo-2-({4-[4-oxo-3-(phenylamino)-4,5,6,7-tetrahydro-1H-indol-2-yl]pyridin-2-yl}amino)ethyl]carbamate]	6.57
